Structures are written as SMILES.

Test [1] deals with Carbonic anhydrase 5A, mitochondrial (Homo sapiens, UniProt P35218).
Test [2] has as its target Carbonic anhydrase 2 (Homo sapiens, UniProt P00918).

Sequence of Carbonic anhydrase 5A, mitochondrial (P35218 whole entry): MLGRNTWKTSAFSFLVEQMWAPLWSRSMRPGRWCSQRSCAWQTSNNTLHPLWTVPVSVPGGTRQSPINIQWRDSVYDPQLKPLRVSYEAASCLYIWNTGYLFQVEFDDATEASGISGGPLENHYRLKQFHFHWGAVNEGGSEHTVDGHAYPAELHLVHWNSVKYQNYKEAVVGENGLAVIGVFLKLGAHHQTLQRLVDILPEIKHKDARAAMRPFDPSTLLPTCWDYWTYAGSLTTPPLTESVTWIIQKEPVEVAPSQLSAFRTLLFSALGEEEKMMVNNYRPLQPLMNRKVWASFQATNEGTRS

Turning to `COC(=O)c1ccccc1S(N)(=O)=O`, the 50% inhibitory concentration (IC50) (in general, the concentration at which inhibition is half-maximal) in test [1] stood at 53.2 µM.

In the case of `NNc1ccccc1S(N)(=O)=O`, the IC50 in test [1] stood at 9.6 µM.

Consider `NS(=O)(=O)c1nc2ccc([N+](=O)[O-])cc2s1`, for which the values for the IC50 in test [1] and in test [2] were 44.9 µM and 0.25 µM, respectively.

On to `N/C(S)=N/Nc1ccc(S(N)(=O)=O)cc1`, for which the values for the IC50 in test [1] and in test [2] were 63.7 µM and 0.29 µM, respectively.

In test [1], `Nc1ccc(S(N)(=O)=O)cc1I` showed an IC50 of 9.4 µM. In other words, the single-digit micromolar range.

`NS(=O)(=O)c1ccc([N+](=O)[O-])cc1`: the IC50 in test [1] was determined as 4.2 µM; in test [2], 0.4 µM.

As for `N#CSc1ccc(S(N)(=O)=O)cc1`, the figures for the IC50 in test [1] and in test [2] were 8.6 µM and 3.6 µM, respectively.

Take `NS(=O)(=O)c1cccc([N+](=O)[O-])c1`: the values for the IC50 in test [1] and in test [2] were 0.78 µM and 0.41 µM, respectively.

As for `Nc1nccc(Nc2ccc(S(N)(=O)=O)cc2)n1`, the midpoint of inhibition in test [1], the IC50, lay at 29.9 µM.

For `Nc1ccccc1S(N)(=O)=O`, half-maximal inhibition in test [1] (IC50) required 15.3 µM. This IC50 lies about 2-fold lower than the previous one.

`Nc1ccc(S(N)(=O)=O)cc1Br` gave an IC50 in test [1] of 7.6 µM. This IC50 lies about 2-fold lower than the previous one.

In turn, `NS(=O)(=O)c1ccc(CCO)cc1` showed an IC50 in test [1] of 17 µM. This IC50 is about 2.2-fold higher than that of the compound before.

In the case of `Nc1ccc(S(N)(=O)=O)cc1F`, the IC50 in test [1] amounted to 9.3 µM.

Turning to `NS(=O)(=O)c1ccc(CO)cc1`, the IC50 in test [1] came to 9.3 µM.

`NCCc1ccc(S(N)(=O)=O)cc1` had an IC50 in test [1] of 42.4 µM.

Regarding `Nc1ccc(S(N)(=O)=O)cc1Cl`, the IC50 in test [1] amounted to 7.4 µM.

Compound `NNc1ccc(S(N)(=O)=O)cc1` returned an IC50 in test [1] of 7.7 µM.

The compound `NS(=O)(=O)c1ccc(C(=O)O)cc1` [CARZENIDE] had an IC50 in test [1] of 2.65 µM.

Compound `NCc1ccc(S(N)(=O)=O)cc1` [MAFENIDE] returned an IC50 in test [1] of 27.6 µM.

Regarding `Cc1ccc(S(N)(=O)=O)cc1` [P-TOLUENESULFONAMIDE], in test [1], the midpoint of inhibition, the IC50, lay at 4.7 µM.

Take `[H]/N=C(/N)NS(=O)(=O)c1ccc(N)cc1` [SULFAGUANIDINE]: the IC50 in test [1] and in test [2] was above 100 µM in each case.

With `Nc1ccc(S(N)(=O)=O)cc1` [SULFANILAMIDE], in test [1], the IC50 turned out to be 32 µM.

For the origin of these results see ChEMBL document CHEMBL1138639, “Carbonic anhydrase inhibitors: inhibition of human cytosolic isozyme II and mitochondrial isozyme V with a series of benzene sulfonamide derivatives” (Bioorg Med Chem Lett, 2004).
